Assays:
[1] = PAMPA assay (blood-brain barrier permeability); assay type: in vitro ADME; conditions: 200 µM, 5 h
Description: This test is a popular method for estimating the possibility of crossing BBB through passive transport. […] Caffeine was used as a standard well-permeable compound.
The Gentest^TM PAMPA Plate System, purchased from Corning (Tewksbury, MA, USA), was used for permeability evaluation. Caffeine (a reference) and the compound tested were dissolved in DMSO (10 mM stocks) and after dilution to 200 μM in PBS (pH 7.4), added to donor wells. Then, after incubation for 5 h at room temperature, concentrations of tested compounds in donor and acceptor wells were estimated by the mass spectra (LC/MS) method as described previously. The UPLC/MS Waters […] TQD system with the TQ Detector (Waters, Milford, CT, USA) was used for this detection. The assay was performed in triplicate. The permeability value (Pe) was calculated using the formula described by Chen et al..

[2] = target: T1, human histamine H4 receptor (Homo sapiens, UniProt Q9H3N8); conditions: ref 57 (Grosicki et al.); read-out: hH4R Ki; cited from earlier work
T1 construct: made in house; host or cells: Sf9 cells (membrane preparations)

hH4R [3] = target: T2, hH4R (Homo sapiens, UniProt Q9H3N8); experiment: cAMP accumulation assay (LANCE Ultra cAMP, CHO-K1 cells stably expressing hH4R); assay type: cell-based; parameters: expressed in transfected cells
Description: Intrinsic activity via the Gα subunit was measured using a LANCE Ultra cAMP detection kit and CHO-K1 cells stably expressing hH4R. Adenyl cyclase was stimulated by forskolin (10 µM).
Intrinsic activity in G protein-dependent pathway was measured with homogenous TR-FRET immunoassay, using LANCE Ultra cAMP kit and CHO-K1 H4R cell line or γ-irradiated recombinant CHO-K1 H4R cells (all from PerkinElmer). […] If the CHO-K1 H4R cell line was used it had been cultivated in DMEM/F12 10% FBS 400 µg/mL geneticin and passaged three times a week. […] The antagonist activity was measured in a white, opaque, 384-well microplate (PerkinElmer) with a total volume of 20 µL. […] After incubation, 5 µL of europium chelate-labelled cAMP tracer and 5 µl of ULight-labelled anti-cAMP mAb working solutions were added, mixed and incubated for 1 h. TR-FRET signal was read using a microplate reader (PerkinElmer, Waltham, MA, USA).

hH4R [4] = target: T2, hH4R; experiment: β-arrestin recruitment assay (LiveBLAzer, Tango-H4-bla U2OS cells); assay type: cell-based; parameters: expressed in transfected cells; host or cells: Tango-H4-bla U2OS cells
Description: Compounds were tested using LiveBLAzer^TM assay and Tango-H4-bla U2OS cells, allowing the estimation of the percentage of β-arrestin recruitment in response to tested treatments.
All used media and reagents except DMSO and tested compounds were purchased from ThermoFisher Scientific, Waltham, MA, USA. DMSO was from CarlRoth (Karlsruhe, Germany) and histamine was from Sigma Aldrich (Darmstadt, Germany). […] The day before the experiment cells were collected from the culture flask with trypsin and seeded in 384 well black-wall, clear-bottom plate (PerkinElmer, Waltham, MA, USA) in concentration 10,000 cells/well in FreeStyle medium. After 24 h of incubation, the cells were checked under the microscope and the dilutions of tested compounds were prepared and added to the wells. In agonist mode compounds were added to the wells and plates were placed in the incubator (HERAcell240, Heraeus, Hanau, Germany) for 16 h. In antagonist mode, first, the compounds were added to the wells, plates were incubated for 30 min, then histamine solution (corresponding to EC80—500 nM) was added and plates were put in the incubator for 16 h. After this time β-lactamase substrate mixture was prepared and added to wells (8 µL/well). Cells were incubated for 2 h at room temperature in the dark then the signal was read using an EnSpire microplate reader (PerkinElmer, Waltham, MA, USA). Drawing of dose-dependent curves and IC50 calculation for compounds were made using GraphPad Prism 6 (GraphPad Software, San Diego, CA, USA).

hH4R [5] = target: T2, hH4R; experiment: cAMP accumulation assay (LANCE Ultra cAMP, CHO-K1 cells stably expressing hH4R); assay type: cell-based; parameters: expressed in transfected cells; conditions: antagonist mode
mice [6] = experiment: Histamine-induced pruritus; assay type: in vivo; conditions: 10 mg/kg, 60 min observation (control 62.11 ± 9.4)
Description: Intradermal injection of histamine induced scratching bouts in the amount of 62.11 ± 9.4. […].
(§1) The surface (around 2 cm^2) of the mice’s nape was shaved at least 2 days prior to experiments. On the day of the experiment, mice were individually placed in plastic chambers (15 × 15 × 30 cm) and after the 30 min habituation period, they were given an intradermal (i.d.) injection of histamine dihydrochloride (10 µmol/site) or chloroquine (CQ, 200 µg/site), which were dissolved in physiological saline and administrated in the constant volume of 20 μL. Immediately after the injection, scratching (series of movements considered as a single scratching bout) of the injected site by the hind paw was counted for 60 min or 30 min after histamine and CQ administration, respectively. Before pruritogens injection different groups of mice were treated i.p. with vehicle (10 mL/kg, negative control) or the dose–response of investigated compound.
(§2) Figure 9 The effect of compound 6 and reference compound pyrilamine (Pyr) on the number of scratching bouts during 60 min-long observation in histamine-induced pruritus (A) and 30 min-long observation in chloroquine-induced pruritus (B). The tested compound or vehicle (1% solution of Tween 80) was administered intraperitoneally (i.p.) 30 min before the intradermal (i.d.) injection of histamine or chloroquine. The results are presented as bar plots showing the mean ± SEM. Statistical analysis: one-way ANOVA followed by Dunnett’s post hoc test, * p < 0.05, ** p < 0.01, *** p < 0.001, n = 8–10 mice per group.

mice [7] = experiment: Chloroquine-induced pruritus; assay type: in vivo; conditions: 10 mg/kg, 30 min observation
Text: When comparing the activity of the tested in both used models, it should be noted that the efficacy (higher maximal effect) and potency (lower doses needed to obtain the same result) of the compound were better in histamine-induced pruritus. Nevertheless, compound 6 was also active in histamine-independent itch, which contrasts with the activity of pyrilamine representing a commonly used drug in the treatment of pruritus. […] The wide spectrum of antipruritic activity of compound 6 is very promising, considering that histamine-independent itch is still a crucial clinical problem in pruritus treatment.
as §1, §2

T2 sequence (Q9H3N8 whole entry): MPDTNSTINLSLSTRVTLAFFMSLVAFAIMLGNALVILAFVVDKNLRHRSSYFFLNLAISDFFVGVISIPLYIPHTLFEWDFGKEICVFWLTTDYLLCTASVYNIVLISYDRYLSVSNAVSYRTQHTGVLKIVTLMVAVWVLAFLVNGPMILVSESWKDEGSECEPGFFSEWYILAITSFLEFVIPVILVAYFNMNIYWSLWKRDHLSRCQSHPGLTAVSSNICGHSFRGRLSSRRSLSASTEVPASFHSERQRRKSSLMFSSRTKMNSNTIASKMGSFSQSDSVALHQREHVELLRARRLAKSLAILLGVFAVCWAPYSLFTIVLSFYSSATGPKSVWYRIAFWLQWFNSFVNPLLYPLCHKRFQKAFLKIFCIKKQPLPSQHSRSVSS
T1 sequence (Q9H3N8 whole entry): as above

Cn1c(=O)c2c(ncn2C)n(C)c1=O [Caffeine]
Mass Retention (R) [1]: 1.54% | Pe (permeability coefficient) ± SD ([1]; PBS pH 7.4, permeable if Pe > 1.5 × 10^−6 cm/s): 9.78 ± 1.75 10^−6 cm/s | Mass Retention (R) ([1]; listed as caffeine): 1.54%

CN1CCN(c2nc(N)nc(CC3=CCCCC3)n2)CC1 [Compound 8, 4-(Cyclohexenylmethyl)-6-(4-methylpiperazin-1-yl)-1,3,5-triazin-2-amine]
Ki [2]: 4700 nM | IC50 (hH4R [3]; antagonist mode, forskolin 10 µM, histamine 140 nM, CHO-K1 hH4R cells, read-out: cAMP hH4R IC50 ± SEM): 743 ± 30 nM | Kb (hH4R [3]; calculated from IC50 by Leff–Dougall variant of Cheng–Prusoff equation, read-out: pKb cAMP ± SEM (converted)): 263 nM | IC50 (hH4R [4]; antagonist mode, histamine 500 nM (EC80), Tango-H4-bla U2OS cells, read-out: β-arrestin hH4R IC50 ± SEM): 41 ± 6 nM | β-arrestin hH4R % of max. Antagonist Activity at 10 µM (hH4R [4]; at 10 µM, antagonist mode): 102% | Kb (hH4R [4]; calculated from IC50 by Leff–Dougall variant of Cheng–Prusoff equation, read-out: pKb β-arrestin ± SEM (converted)): 6.76 nM | melting point: 149 to 153 °C | cAMP hH4R % of max. Antagonist Activity at 10 µM (hH4R [5]): 98%

COc1ccc(CN(CCN(C)C)c2ccccn2)cc1 [pyrilamine, reference compound]
Number of scratch bouts, histamine-induced pruritus (mice [6]): 28.56 ± 3.55 scratch bouts | Effect on scratching behaviour, chloroquine-induced pruritus (mice [7]): did not significantly reduce scratching behaviour
